Series [1] deals with Mycobacterium tuberculosis (strain H37RV). As to the kind of experiment: In-vitro testing against M. tuberculosis (growth inhibition, Resazurin fluorescence). Conditions: 168 h, 7 days at 37° C., bacterial growth, read-out: M. tuberculosis pIC50 (converted). The format is cell-based. A general note: Resazurin is reduced to fluorescent resorufin, in cell work by metabolically active cells.

For another series, the system named is M. Smegmatis ATCC607. The series is described as follows: In-vitro anti-bacterial activity against strain M. smegmatis ATCC607 (growth inhibition, Alamar Blue fluorescence). The note with it: strain ATCC607, 48 hours at 37° C.; for IC50: Mycolicibacterium smegmatis, ATCC607, 48 h, read-out: M. smegmatis pIC50 (converted). The format is cell-based. The method, then:
D.2. In-Vitro Method for Testing Compounds for Anti-Bacterial Activity Against Strain M. Smegmatis ATCC607 Flat-bottom, sterile 96-well plastic microtiter plates were filled with 180 μl of sterile deionized water, supplemented with 0.25% BSA. […] Serial five-fold dilutions (45 μl in 180 μl) were made directly in the microtiter plates from column 2 to 11 using a customised robot system (Zymark Corp. Hopkinton, Mass.). Pipette tips were changed after every 3 dilutions to minimize pipetting errors with high hydrophobic compounds. […] Approximately 250 CFU per well of bacteria inoculum, in a volume of 100 μl in 2.8× Mueller-Hinton broth medium, was added to the rows […]. The same volume of broth medium without inoculum was added to column 12 in row A to H. The cultures were incubated at 37° C. for 48 hours in a humidified 5% CO2 atmosphere (incubator with open air valve and continuous ventilation). At the end of incubation, two days after inoculation, the bacterial growth was quantitated fluorometrically. Therefore Alamar Blue (10×) was added to all wells in a volume of 20 μl and plates were incubated for another 2 hours at […] The fluorescence was read in a computer-controlled fluorometer (Cytofluor, Biosearch) at an excitation wavelength of 530 nm and an emission wavelength of 590 nm (gain 30). The % growth inhibition achieved by the compounds was calculated according to standard methods. The pIC50 was defined as the 50% inhibitory concentration for bacterial growth.

Molecules are shown by their SMILES.

As a reminder, the melting point is the temperature of the solid-liquid transition.

For `CCc1cc2cc(C(c3ccccc3)C(O)(CCN(C)C)c3cc(F)cc(F)c3)ccc2nc1Cl` (single isomer, unassigned) [Compound 15], the IC50 in series [1] is 10 µM; in the series on M. Smegmatis ATCC607, 0.398 µM.

The molecule `CN(C)CC[C@](O)(c1cccc(F)c1)C(Cc1ccccc1)c1ccc2cc(Br)ccc2n1` (stereo partly shown) [Compound 1] displayed a melting point of 136 °C. Also, the IC50 in the series on M. Smegmatis ATCC607 is 0.631 µM.

Turning to `CN(C)CC[C@](O)(c1cccc2ccccc12)C(Cc1ccccc1)c1ccc2cc(Br)ccc2n1` (stereo partly shown) [Compound 2], the melting point turned out to be 143 °C. For the same molecule, the IC50 in the series on M. Smegmatis ATCC607 is 0.316 µM.

For the molecule `CN(C)CC[C@@](O)(c1cccc2ccccc12)C(Cc1ccccc1)c1ccc2cc(Br)ccc2n1` (stereo partly shown) [Compound 3], the melting point came to 69 °C. In the series on M. Smegmatis ATCC607, the IC50 is 2 µM.

Consider `CN(C)CC[C@@](O)(c1cccc(F)c1)C(c1ccccc1)c1ccc2cc(Br)ccc2n1` (stereo partly shown) [Compound 6], for which the melting point was determined as 134 °C. In addition, the IC50 in the series on M. Smegmatis ATCC607 was 12.6 µM.

Take `CCc1cc2ccc([C@H](c3ccccc3)[C@@](O)(CCN(C)C)c3cccc4ccccc34)cc2nc1Cl` [Compound 8]: the IC50 in the series with M. Smegmatis ATCC607 was 1.58 µM.

With `CCc1cc2ccc([C@H](c3ccccc3)[C@@](O)(CCN(C)C)c3cc(F)cc(F)c3)cc2nc1Cl` [Compound 9], in the series with M. Smegmatis ATCC607, the “M. smegmatis pIC50” value is 5.8.

As for `CCc1cc2ccc([C@H](c3ccccc3)[C@@](O)(CCN(C)C)c3cc(F)cc(F)c3)cc2nc1Cl` [Compound 10], the IC50 is 7.94 µM in series [1] and 1.26 µM in the series with M. Smegmatis ATCC607.

`CN(C)CC[C@](O)(c1cc(F)cc(F)c1)[C@@H](c1ccccc1)c1cc(Br)cc2c(-c3ccccc3)cc(Cl)nc12` [Compound 11] registered a melting point of 220 °C. The IC50 with M. Smegmatis ATCC607 is 2 µM.
